Laboratory results from ChEMBL document CHEMBL3352183, “Borrelidin B: isolation, biological activity, and implications for nitrile biosynthesis” (J Nat Prod, 2014).
Calls of active or inactive are those of the source. The rule behind the calls is not given here.

How the values were obtained:
[1] = target: T1, Threonine--tRNA ligase, mitochondrial (Homo sapiens) (UniProt Q9BW92); test: Inhibition of threonyl tRNA synthetase (unknown origin) assessed as depletion of tRNAs at 50 uM by SToPs assay
T1 sequence (whole entry): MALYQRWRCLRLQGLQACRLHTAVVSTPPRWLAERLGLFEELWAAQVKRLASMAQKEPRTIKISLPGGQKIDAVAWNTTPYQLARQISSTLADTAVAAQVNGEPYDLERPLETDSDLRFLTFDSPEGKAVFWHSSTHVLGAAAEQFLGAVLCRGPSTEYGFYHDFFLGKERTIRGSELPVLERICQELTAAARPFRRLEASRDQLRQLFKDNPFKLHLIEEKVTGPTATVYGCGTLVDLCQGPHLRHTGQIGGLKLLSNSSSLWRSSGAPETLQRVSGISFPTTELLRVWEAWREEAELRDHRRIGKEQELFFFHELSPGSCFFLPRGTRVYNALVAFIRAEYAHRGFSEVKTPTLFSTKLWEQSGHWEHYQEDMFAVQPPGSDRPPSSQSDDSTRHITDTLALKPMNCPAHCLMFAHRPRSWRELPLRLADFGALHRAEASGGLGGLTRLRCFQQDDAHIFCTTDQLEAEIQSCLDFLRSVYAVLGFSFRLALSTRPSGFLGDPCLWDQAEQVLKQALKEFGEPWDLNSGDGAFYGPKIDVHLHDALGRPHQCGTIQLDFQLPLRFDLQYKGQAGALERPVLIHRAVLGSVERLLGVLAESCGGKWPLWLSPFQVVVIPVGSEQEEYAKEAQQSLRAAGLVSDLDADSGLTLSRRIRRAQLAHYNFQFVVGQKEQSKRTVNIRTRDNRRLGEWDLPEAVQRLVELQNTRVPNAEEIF

[2] = test system: HeLa; test: Mitotic arrest in human HeLa cells assessed as accumulation at […] at 0.98 to 30 uM using pHH3 staining-based fluorescent assay; assay type: functional, cell-based
[3] = test system: NCI-N87; test: Growth inhibition of human NCI-N87 cells; assay type: functional, cell-based
[4] = test system: HT-29; test: Growth inhibition of human HT-29 cells; assay type: functional, cell-based
[5] = test system: MDA-MB-361; test: Growth inhibition of human MDA-MB-361 cells; assay type: functional, cell-based

Structure (SMILES)	inhibition [1]	Activity [2]	IC50 [3] [nM]	IC50 [4] [nM]	IC50 [5] [nM]
CC(=O)NC/C1=C/C=C/C[C@@H]([C@@H]2CCC[C@H]2C(=O)O)OC(=O)C[C@H](O)[C@@H](C)C[C@@H](C)C[C@@H](C)C[C@H](C)[C@H]1O	inactive	inactive			
C[C@@H]1C[C@H](C)C[C@H](C)[C@@H](O)CC(=O)O[C@H]([C@@H]2CCC[C@H]2C(=O)O)C/C=C/C=C(/CN)[C@H](O)[C@@H](C)C1	Active	Dose-dependent effect	1300	2000	2200
C[C@@H]1C[C@H](C)C[C@H](C)[C@@H](O)CC(=O)O[C@H]([C@@H]2CCC[C@H]2C(=O)O)C/C=C/C=C(/C#N)[C@H](O)[C@@H](C)C1 [BORRELIDIN]			50	920	420
